For 63 compounds, melting point results are on record in a melting point compilation (Tetko et al.; mined from patent text by program, amines drawn as free bases though some values may be those of a salt).

By melting point is commonly meant the temperature, or range, at which the solid turns liquid.

Molecules are shown by their SMILES.

`Cc1cccc(Nc2nnc(C3OCOCO3)c3ccccc23)c1`: the melting point stood at 161 °C.
Under `CC=C1CCC2C3CCC4CC(O)C(OCC)CC4(C)C3C(N)CC12C` (stereo not drawn) stands 65 to 70 °C; under `CN1CC(c2cc(CCc3ccccc3)cnn2)=C(O)C1=O`, 203 to 205 °C.
As to `O=C(CN(C(=O)c1cccc(C(F)(F)F)c1)c1ccccc1)Nc1ccc(Cl)c(Cl)c1`, the melting point was 130 to 132 °C.
Regarding `Cc1cc(CC(=O)O)c(CC(C)N)cc1C` (stereo not drawn), the melting point was 222 to 223 °C.
For the compound `CC1(c2ccccc2)OC(C=Cc2ccsc2)=CC1=O` (stereo not drawn), the melting point lay within 75 to 77 °C.
As for `CCOC(=O)c1c(CN2CCCC2=O)nc2sc3c(c2c1-c1ccc2c(c1)OCO2)CCN(C(=O)c1ccccc1)C3`, the melting point was 270 to 271 °C.
Compound `COC(=O)C=Cc1ccccc1C#N` yielded a melting point of 92 to 93 °C.
In turn, `COC1CC(NC(=O)C(F)(F)F)C(C)(O)C(C)O1` (stereo not drawn) had a melting point of 133 to 134 °C.
Under `O=C(Nc1ccc(Cl)c(Cl)c1)OC1CN2CCC1CC2` (stereo not drawn) stands 181 to 184 °C; under `CCCCCCC1=C(Br)C(CBr)(NCc2ccccc2)OC1=O` (stereo not drawn), 72 to 75 °C; under `COc1cccc(-c2ccnc3ncnn23)c1`, 163 to 165 °C.
`O=C(O)c1ccccc1Oc1ccccc1O` gave a melting point of 147 to 149 °C.
To `Cc1nc(-c2cccc(-c3nc4sccn4c3-c3ccnc(N[C@@H]4CCCNC4)n3)c2)no1` belongs 203 to 207 °C; to `O=C1NC(=O)C2(c3cc(Oc4ccc(O)cc4)c(Cl)cc3F)CCCCC12` (stereo not drawn), 117 to 120 °C; to `CCNC(=O)Nc1nc2cc(OCc3ccccc3)cc(Br)c2s1`, 294 °C.
As to `Nc1cccc(-c2cncc(OC[C@@H]3CCN3)c2)c1`, the melting point was in the range of 85 to 87 °C.
For `O=S(=O)(NCCNCC=Cc1ccc(Cl)cc1)c1cccc2cnccc12`, the melting point fell in the range of 120 to 123 °C.
Under `O=C(NC(CO)CO)c1cccc(-c2ccc3c(c2)C(c2cc(Cl)ccc2Cl)CC3)c1` (stereo not drawn) stands 166 °C; under `O=C(CCCBr)Nc1ccc(O)cc1`, 142 to 144 °C.
Under `CCOC(=O)C1=CC(C(=O)c2cc(Br)ccc2O)=CN2CCc3c([nH]c4ccc(OC)cc34)C12C(=O)OCC` (stereo not drawn) stands 225 °C.
To `CC(O)(C=Cc1ccc(S(=O)(=O)N2CCCC2)cc1)C(F)(F)F` (stereo not drawn) belongs 119 to 121 °C.
Compound `CCOC(=O)C(=O)Nc1cc(NC(=O)C(=O)OCC)c(OC)nc1OC` displayed a melting point of 170 to 173 °C.
As for `COC(=O)c1c(C)nc(CC(C)C)c(CN)c1-c1ccc(C)cc1`, the melting point fell in the range of 56 to 57 °C.
`CC(C)OC(=O)N1CC(=O)Nc2ccc(Br)cc21` registered a melting point of 159 to 161 °C.
Compound `CN(Cc1cc(C(F)(F)F)cc(C(F)(F)F)c1)C(=O)c1c(-c2ccccc2C(F)(F)F)c2ccccc2c(=O)n1C` yielded a melting point of 159 to 160 °C.
Compound `COCOc1ccc(-c2ccc(-c3ccc(C(=O)O)cc3)cc2-c2ccc3c(c2)C(C)(C)CCC3(C)C)cc1` had a melting point of 249 to 251 °C.
In the case of `CC1(C)CCC(Cc2ccc(Cl)cc2)C1(O)COS(C)(=O)=O` (stereo not drawn), the melting point lay in the range of 113 to 114 °C.
`Cc1cc(N2CCC[C@H]2COc2ccc(CC3SC(=O)NC3=O)cc2)nc2ccccc12` (stereo partly drawn) yielded a melting point of 95 to 97 °C.
As for `Cc1ccc(NC(=O)c2cc(Cl)ccc2NCC2CCN(C3CCSCC3)CC2)nc1`, the melting point lay within 173 to 176 °C.
Compound `COc1cc2ccc(-c3cc4c(cc3[N+](=O)[O-])OCO4)c([N+](=O)[O-])c2cc1OC` showed a melting point of 187 to 189 °C.
`N#Cc1cc[nH]c1-c1cc2ccccc2o1` gave a melting point of 157 to 160 °C.
As for `Cn1ccnc1Sc1ccc(Nc2c(C#N)cnc3cc(/C=C/CN4CCCC4)ccc23)cc1Cl`, the melting point lay within 182 to 190 °C.
`CCOC(=O)c1ccc(NC(=O)C(C)C)c([N+](=O)[O-])c1` came in with a melting point of 74 to 76 °C.
With `Cc1nc2ccccc2n1-c1ccc(C#N)cc1`, the melting point was in the range of 166 to 168 °C.
Compound `CC(c1c[nH]cn1)c1cccc2c1OC(C)(C)OC2` (stereo not drawn) showed a melting point of 118 °C.
For `COc1cc2c(=O)cc[nH]c2cc1OCc1ccccc1`, the melting point lay in the range of 235 to 236 °C.
As for `CC(=O)c1[nH]c(C)nc1C`, the melting point was in the range of 83 to 87 °C.
The compound `CN(C)c1nc(NCc2ccc(NC(=O)c3ccc(F)cc3)cc2)c2ccc(CO)cc2n1` returned a melting point of 158 °C.
To `OC1(c2cccs2)CCN(CCCc2nnc3n2CCCCC3)CC1` belongs 162 to 163 °C; to `CCOC(=O)C(NC(=O)NC)C(=O)OCC`, 139 °C.
Compound `CSc1ccc(C(=O)Nc2cccnc2C(=O)Nc2ccc(Cl)cn2)c(OCCN)c1` displayed a melting point of 158 to 159 °C.
In turn, `O=S(=O)(Nc1ccc2c(-c3ccccc3Cl)n[nH]c2c1)c1cccc(Cl)c1` yielded a melting point of 187 to 189 °C.
The compound `CC(C)(C)OC(=O)NCCCCCCNC(=O)c1cccc(-c2nc(=O)c3ccccc3s2)n1` displayed a melting point of 145 °C.
`O=Cc1ccnc2c1NC(=O)c1cccnc1N2C1CC1` displayed a melting point of 220 to 222 °C.
`Cc1oc(-c2ccco2)nc1COc1ccc(COc2nn(-c3ccccc3)cc2C#N)cc1` returned a melting point of 158 to 159 °C.
To `Cc1cc(F)ccc1-c1nc(OCCN)nc2c1ccc(=O)n2-c1c(F)cccc1F` belongs 96 to 99 °C.
For the compound `CCNc1nc(-c2ccc(F)c3ccccc23)cc(C(C)C)n1`, the melting point fell in the range of 77 to 78 °C.
In turn, `CC(C)Cn1nc(C(=O)c2cccc(O)c2)c2ccccc21` came in with a melting point of 108 to 110 °C.
Under `COc1cc(N)c2nc(OCc3ccc(Cl)cc3)ccc2c1` stands 124 to 125 °C.
As for `CNC(=O)CN1CCc2cc(Nc3ncc(Cl)c(N[C@@H]4CCCC[C@H]4NS(C)(=O)=O)n3)c(OC)cc2CC1`, the melting point was 92 to 104 °C.
Take `Cc1cc(=O)[nH]nc1-c1cccc(C(F)(F)F)c1`: the melting point lay in the range of 224 to 227 °C.
Regarding `O=C1c2cc(Cl)ccc2-c2ccccc2CN1CCBr`, the melting point lay within 94 to 97 °C.
As for `N#Cc1ccc2ccccc2c1O`, the melting point was in the range of 182 to 183 °C.
`COc1ccc([C@H](Sc2cc(Oc3ccc4c(c3)OCO4)ccc2N)[C@@H](O)C(=O)O)cc1`: the melting point lay within 112 to 113 °C.
`CSC(C#N)=C1CCN(c2ccc(N3C[C@H](CNC(C)=O)OC3=O)cc2F)CC1` yielded a melting point of 205 to 207 °C.
Under `CCCCCCCC1=CC(=O)N(Cc2ccccc2)C1=CBr` stands 52 to 55 °C; under `O=C1C(=O)c2ccccc2C2=C1SCC1(CCN(Cc3ccccc3F)CC1)O2`, 118 to 122 °C; under `CS(=O)(=O)Nc1cc(C(c2cc(F)ccc2F)S(=O)(=O)c2ccc(F)c(F)c2)c(Cl)cn1` (stereo not drawn), 118 to 120 °C.
With `C(=C\c1ccc2oc3ccc(/C=C/c4ccccc4)cc3c2c1)/c1ccccc1`, the melting point was 226 °C.
Turning to `CCCC(=O)NS(=O)(=O)c1ccc(C(=O)/C=C/c2cc(N3CCCC3)c(OC)cc2OC)cc1`, the melting point was 193 to 195 °C.
Consider `O=C1N(Cc2ccc(C(F)(F)F)o2)c2c(Cl)cccc2C12COc1cc3c(cc12)CCO3` (stereo not drawn), for which the melting point was in the range of 210 to 211 °C.
Consider `FC(F)C(F)(F)Oc1cccc(Nc2nccc(-c3cncc4ccccc34)n2)c1`, for which the melting point was 158 to 160 °C.
